How the values were obtained:
Type in all cases: biochemical
Akt2 = molecular target: T1, Akt2 (Homo sapiens, UniProt P31751); test: Akt kinase assay, phosphorylation of GSK3-derived peptide; conditions: GSK3 peptide substrate
T1 construct: a middle T tag was added to the 5′ end of the full length Akt2; middle T tag (EYMPME) (N); biotin tag (from pS2neo vector); made in house; host or cells: Drosophila S2 cells
From the text: (§1) The ^33P-labeled biotinylated product can be captured and detected using Streptavidin coated Flashplates (NEN LifeSciences) or Streptavidin Membrane Filter Plates (Promega).
(§2) GSK3α (S21) Peptide #3928, biotin-[…] PG (SEQ.ID.NO.: 15), FW=1517.8 (obtained from Macromolecular Resources) for Streptavidin Flashplate or Streptavidin Filter Plate detection.
(§3) GSK3α (S21) Peptide #G80613, […] (SEQ.ID.NO.: 16), FW=1547.8 (obtained from Research Genetics) for Phosphocellulose filter plate detection.
(§4) The reactions were then incubated at room temperature for 45 minutes.
(§5) 200 μl of stopped reaction was transferred to a Streptavidin Flashplate® PLUS (NEN Life Sciences, catalog no. SMP103). The plate was incubated for ≧10 minutes at room temperature on a plate shaker. The contents of each well was aspirated, and the wells rinsed 2 times with 200 μl TBS per well. The wells were then washed 3 times for 5 minutes with 200 μl TBS per well with the plates incubated at room temperature on a platform shaker during wash steps.
(§6) The plates were covered with sealing tape and counted using the Packard TopCount with the appropriate settings for counting [^33P] in Flashplates.
(§7) The enzymatic reactions as described in Step I of the Streptavidin Flash Plate Assay above were performed.
(§8) The reaction was stopped by adding 20 μl of 7.5M Guanidine Hydrochloride.
(§9) The plate was then washed using a vacuum manifold as follows: 1) 4×200 μl/well of 2M NaCl; 2) 6×200 μl/well of 2M NaCl with 1% H3PO4; 3)2×200 μl/well of diH20; and 4)2×100 μl/well of 95% Ethanol. The membranes were then allowed to air dry completely before adding scintillant.
(§10) The bottom of the plate was sealed with white backing tape, 30 μl/well of Microscint 20 (Packard Instruments, catalog no. 6013621) was added. The top of the plate was sealed with clear sealing tape, and the plate then counted using the Packard TopCount with the appropriate settings for [^33P] with liquid scintillant.
(§11) The enzymatic reactions were performed as described in Step 1 of the Streptavidin Flash Plate Assay (above) utilizing […] (SEQ.ID. NO.: 16) as the substrate in place of biotin-[…].
(§12) The reaction was stopped by adding 20 μl of 0.75% H3PO4.
(§13) The bottom of the plate was sealed with white backing tape, then 30 μl/well of Microscint 20 was added. The top of the plate was sealed with clear sealing tape, and the plate counted using the Packard TopCount with the appropriate settings for [^33P] and liquid scintillant.

active human Akt1 = molecular target: T2, active human Akt1 (Homo sapiens, UniProt P31749); test: as above; conditions: GSK3 peptide substrate; read-out: GSK3 Peptide Substrate IC50 (μM) Akt-1
T2 construct: purchased Upstate Biotechnology 14-276
T2 sequence (P31749 whole entry): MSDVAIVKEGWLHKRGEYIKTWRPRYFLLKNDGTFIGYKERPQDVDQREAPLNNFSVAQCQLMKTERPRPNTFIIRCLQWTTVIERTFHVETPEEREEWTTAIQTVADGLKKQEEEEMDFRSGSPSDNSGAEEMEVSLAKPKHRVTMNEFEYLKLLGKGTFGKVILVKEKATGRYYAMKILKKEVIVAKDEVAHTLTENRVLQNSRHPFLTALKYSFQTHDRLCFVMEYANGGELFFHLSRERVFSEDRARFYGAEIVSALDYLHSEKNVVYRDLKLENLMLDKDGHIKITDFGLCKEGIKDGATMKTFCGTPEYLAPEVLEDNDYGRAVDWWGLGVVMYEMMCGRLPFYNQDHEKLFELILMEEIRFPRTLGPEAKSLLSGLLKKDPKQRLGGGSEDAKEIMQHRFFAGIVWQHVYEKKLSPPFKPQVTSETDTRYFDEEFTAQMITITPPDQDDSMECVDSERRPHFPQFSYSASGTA
From the text: as §1, §2, §3, §4, §5, §6, §7, §8, §9, §10, §11, §12, §13

PKC (mix of isoforms) = test: PKC assay (counter screen), myelin basic protein phosphorylation; conditions: read-out: Counter screens IC50 (μM) PKC
Experimental: Each PKC assay consists of the following components:
1) 5 μl 10×PKC co-activation buffer (2.5 mM EGTA, 4 mM CaCl2)
2) 10 μl 5×PKC activation buffer (1.6 mg/ml phosphatidylserine, 0.16 mg/ml diacylglycerol, 100 mM Tris pH 7.5, 50 mM MgCl, 5 mM 2-mercaptoethanol)
3) 5 μl ^33P-ATP (prepared by diluting 1.0 μl ^33P-ATP [10 mCi/nil] into 100 μl of a 100 μM stock of unlabeled ATP)
4) 10 μl of a 350 μg/ml stock of myelin basic protein (MBP, UBI) diluted in water
5) 10 μl appropriate solvent control or inhibitor dilution
Final assay concentrations were as follows: 0.25 mM EGTA, 0.4 mM CaCl, 20 mM Tris pH 7.5, 10 mM MgCl, 1 mM 2-mercaptoethanol, 0.32 mg/ml phosphatidylserine, 0.032 mg/mil diacylglycerol, 10 μM 33P-ATP, 70 μg/ml MBP, 10 ng/ml PKC, 0.1 mg/ml BSA.
Assays are performed using 96 deep well assay plates. In each assay well 10 μl of solvent control or appropriate inhibitor dilution with 5 μl ^33P-ATP (components #5 and #3) were premixed. […] The liquid in the assay wells was thoroughly mixed and the assay reactions incubated for 20 minutes at room temperature. The reactions were stopped by adding 100 mM EDTA (50 μl) and 100 mM sodium pyrophosphate (50 μl) and mixing. Phosphorylated MBP was collected on PVDF membranes in 96 well filter plates and quantitated by scintillation counting.

delta PH-Akt1 = molecular target: T3, delta PH-Akt1 (Homo sapiens, UniProt P31749); test: Akt kinase assay, phosphorylation of GSK3-derived peptide (PH domain deleted mutant); conditions: GSK3 peptide substrate; Akt1 lacking PH domain; read-out: GSK3 Peptide Substrate IC50 (μM) Akt-1 delta PH
T3 construct: PCR deletion mutagenesis was done using the full length Akt1 gene in the pS2neo vector as template; middle T tag (EYMPME) (N); biotin tag (from pS2neo vector); made in house; host or cells: Drosophila S2 cells
T3 sequence (P31749 with tags, fused parts or gaps): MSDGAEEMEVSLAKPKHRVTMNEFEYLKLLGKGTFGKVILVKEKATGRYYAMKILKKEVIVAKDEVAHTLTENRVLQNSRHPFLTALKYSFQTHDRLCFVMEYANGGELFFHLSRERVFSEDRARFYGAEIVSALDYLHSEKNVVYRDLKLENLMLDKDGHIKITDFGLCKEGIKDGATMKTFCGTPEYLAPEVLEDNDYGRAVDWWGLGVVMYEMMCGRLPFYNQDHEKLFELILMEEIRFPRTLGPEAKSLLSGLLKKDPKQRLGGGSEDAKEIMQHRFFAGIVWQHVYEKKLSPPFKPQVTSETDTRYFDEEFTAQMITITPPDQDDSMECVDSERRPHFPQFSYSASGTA
From the text: For the expression of a pleckstrin homology domain (PH ) deleted (Δ aa 4-129, which includes deletion of a portion of the Akt1 hinge region) version of Akt1, PCR deletion mutagenesis was done using the full length Akt1 gene in the pS2neo vector as template. […] The final PCR product was digested with KpnI and SmaI and ligated into the pS2neo full length Akt1 KpnI/Sma I cut vector, effectively replacing the 5′ end of the clone with the deleted version.
as §1, §2, §3, §4, §5, §6, §7, §8, §9, §10, §11, §12, §13

Akt3 = molecular target: T4, Akt3 (Homo sapiens, UniProt Q9Y243); test: Akt kinase assay, phosphorylation of GSK3-derived peptide; conditions: GSK3 peptide substrate
T4 construct: a middle T tag was added to the 5′ end of the full length Akt3 clone; middle T tag (EYMPME) (N); biotin tag (from pS2neo vector); made in house; host or cells: Drosophila S2 cells
T4 sequence (Q9Y243 whole entry): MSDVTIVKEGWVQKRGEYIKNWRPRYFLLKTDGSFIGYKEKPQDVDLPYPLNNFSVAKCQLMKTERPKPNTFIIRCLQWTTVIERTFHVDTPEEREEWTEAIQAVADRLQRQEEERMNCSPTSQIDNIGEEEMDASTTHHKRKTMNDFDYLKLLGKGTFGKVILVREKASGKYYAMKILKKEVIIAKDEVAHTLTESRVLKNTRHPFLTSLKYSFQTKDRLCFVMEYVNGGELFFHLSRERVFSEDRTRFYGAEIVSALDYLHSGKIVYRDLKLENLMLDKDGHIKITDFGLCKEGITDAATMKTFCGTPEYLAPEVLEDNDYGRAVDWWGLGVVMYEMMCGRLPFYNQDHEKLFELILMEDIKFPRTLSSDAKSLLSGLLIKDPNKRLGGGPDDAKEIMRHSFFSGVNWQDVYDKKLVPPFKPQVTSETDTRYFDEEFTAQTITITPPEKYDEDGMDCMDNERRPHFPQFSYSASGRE
Experimental: as §1, §4, §5, §6, §7, §8, §9
The top of the plate was sealed with clear sealing tape, and the plate then counted using the Packard TopCount with the appropriate settings for [^33P] with liquid scintillant. […]

PKA catalytic subunit = molecular target: T5, PKA catalytic subunit (Bos taurus, UniProt P00517); test: PKA assay (counter screen), Kemptide phosphorylation; conditions: read-out: Counter screens IC50 (μM) PKA
T5 construct: purchased UBI (Upstate Biotechnology) 14-114
Experimental: Each individual PKA assay consists of the following components:
1) 10 μl 5× PKA assay buffer (200 mM Tris pH7.5, 100 mM MgCl2, 5 mM 2-mercaptoethanol, 0.5 mM EDTA)
2) 10 μl of a 50 μM stock of Kemptide (Sigma) diluted into water
3) 10 μl ^33P-ATP (prepared by diluting 1.0 μl ^33P-ATP [10 mCi/ml] into 200 μl of a 50 μM stock of unlabeled ATP)
4) 10 μl appropriate solvent control dilution or inhibitor dilution
Assays were assembled in 96 deep-well assay plates. Components #3 and #4 were premixed and in a separate tube, a mixture containing equal volumes of components #1, #2, and #5 was prepared. The assay reaction was initiated by adding 30 μl of the components #1, #2, and #5 mixture to wells containing ^33P-ATP and inhibitor. The liquid in the assay wells was mixed and the assay reactions incubated for 20 minutes at room temperature. The reactions were stopped by adding 50 μl 100 mM EDTA and 100 mM sodium pyrophosphate and mixing.
The enzyme reaction product (phosphorylated Kemptide) was quantitated using p81 phosphocellulose 96 well filter plates (Millipore). Each well of a p81 filter plate was fill with 75 mM phosphoric acid. The wells were aspirated and 170 μl of 75 mM phosphoric acid was added to each well. […] The peptide was trapped on filter following the application of a vacuum. The filters were washed 5× by filling wells with 75 mM phosphoric acid followed by aspiration. After the final wash, the filters were allowed to air dry. 30 μl scintillation fluid was added to each well and the filters counted on a TopCount (Packard).

T1 sequence (P31751 whole entry): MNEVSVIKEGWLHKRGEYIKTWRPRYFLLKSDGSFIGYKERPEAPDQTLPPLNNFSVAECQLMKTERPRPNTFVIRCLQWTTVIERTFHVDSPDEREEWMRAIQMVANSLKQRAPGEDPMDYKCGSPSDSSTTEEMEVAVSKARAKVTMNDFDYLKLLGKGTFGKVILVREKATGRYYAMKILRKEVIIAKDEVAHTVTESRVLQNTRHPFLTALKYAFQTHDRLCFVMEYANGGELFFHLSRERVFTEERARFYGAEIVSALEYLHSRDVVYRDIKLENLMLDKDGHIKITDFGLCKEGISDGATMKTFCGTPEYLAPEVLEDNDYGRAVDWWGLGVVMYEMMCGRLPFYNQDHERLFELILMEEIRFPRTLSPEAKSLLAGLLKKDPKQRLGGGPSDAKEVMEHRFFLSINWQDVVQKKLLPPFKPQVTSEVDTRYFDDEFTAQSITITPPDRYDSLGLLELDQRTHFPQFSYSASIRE

| Compound | IC50 (Akt2) [µM] | IC50 (active human Akt1) [µM] | IC50 (delta PH-Akt1) [µM] | IC50 (Akt3) [µM] | IC50 (PKA catalytic subunit) [µM] | IC50 (PKC (mix of isoforms)) [µM] |
| --- | --- | --- | --- | --- | --- | --- |
| COc1ccc(-c2nnc3c4ccccc4c(NCC(C)(C)CN(C)C)nn23)cc1 [Compound 7, N′-[3-(4-Methoxy-phenyl)-[1,2,4]triazolo[4,3-a]phthalazin-6-yl)-2,2,N,N-tetramethyl-propane-1,3-diamine] | > 50 | 3.88 | > 50 | > 50 | > 40 | > 40 |
| CN(C)CC(C)(C)CNc1nn2c(-c3cccc(F)c3)nnc2cc1C1CCC1 [Compound 5, N′-(7-Cyclobutyl-3-(3-fluoro-phenyl)-[1,2,4]triazolo[4,3-b]pyridazin-6-yl)-2,2,N,N-tetramethyl-propane-1,3-diamine] | > 50 | 0.4 | > 50 | > 50 | > 40 | > 40 |
| OCCOc1nn2c(-c3ccccc3)nnc2cc1-c1ccccc1 [Compound 8, 6-(2-Hydroxyethyl)oxy-3 7-diphenyl-[1,2,4]triazolo[4,3-b]pyridazine] | – | 15.9 | – | – | > 40 | > 40 |
| 6-(2-Hydroxybutyl)oxy-3,7-diphenyl-[1,2,4]triazolo[4,3-b]pyridazine [Compound 9] | > 50 | 4.65 | > 50 | > 50 | > 40 | > 40 |
| CN(C)CC(C)(C)CNc1nn2c(-c3ccc(F)c(F)c3)nnc2cc1C1CCC1 [Compound 3, N′-(7-Cyclobutyl-3-(3,4-difluoro-phenyl)-[1,2,4]triazolo[4,3-b]pyridazin-6-yl)-2,2,N,N-tetramethyl-propane-1,3-diamine] | > 50 | 0.91 | > 50 | > 50 | > 40 | > 40 |

The next lines start with results.

| IC50 (Akt2) [µM] | IC50 (active human Akt1) [µM] | IC50 (delta PH-Akt1) [µM] | IC50 (Akt3) [µM] | IC50 (PKA catalytic subunit) [µM] | Compound | IC50 (PKC (mix of isoforms)) [µM] |
| --- | --- | --- | --- | --- | --- | --- |
| > 50 | 0.42 | > 50 | > 50 | > 40 | CN(C)CC(C)(C)CNc1nn2c(-c3cc(F)cc(F)c3)nnc2cc1C1CCC1 [Compound 2, N′-(7-Cyclobutyl-3-(3,5-difluoro-phenyl)-[1,2,4]triazolo[4,3-b]pyridazin-6-yl)-2,2,N,N-tetramethyl-propane-1,3-diamine] | > 40 |
| > 50 | 1.4 | > 50 | > 50 | > 40 | CN(C)CC(C)(C)CNc1nn2c(-c3ccccc3)nnc2cc1C1CCC1 [Compound 1, N′-(7-Cyclobutyl-3-phenyl-[1,2,4]triazolo[4,3-b]pyridazin-6-yl)-2,2,N,N-tetramethyl-propane-1,3-diamine] | > 40 |
| 45 | 6.1 | > 50 | > 100 | > 80 | Nc1ccc(-c2nc3ccccc3nc2-c2ccc(N)cc2)cc1 [Compound 11, 2,3-bis(4-aminophenyl)-quinoxaline] | > 80 |
| > 50 | 10.5 | > 50 | > 50 | > 40 | CN(C)CC(C)(C)CNc1nn2c(-c3ccccc3)nnc2c2ccccc12 [Compound 6, 2,2,N,N-tetramethyl-N-(3-phenyl-[1,2,4]triazolo[3,4-a]phthalazin-6-yl)-propane-1,3-diamine] | > 40 |
| > 50 | 2.03 | > 50 | > 50 | > 40 | CN(C)CC(C)(C)CNc1nn2c(-c3ccc(F)cc3)nnc2cc1C1CCC1 [Compound 4, N′-(7-Cyclobutyl-3-(4-fluoro-phenyl)-[1,2,4]triazolo[4,3-b]pyridazin-6-yl)-2,2,N,N-tetramethyl-propane-1,3-diamine] | > 40 |

From patent US20040106540A1, “Method of treating cancer” (priority 2003, published 2004)
